Data set [1] is described as follows: Solubility of model drugs (donor sample, PBS). The conditions noted are these: for solubility: pH 7.4. As to the method:
(§1) Donor samples for reversibility and infrared studies contained 1% enhancer in 60% PG. All samples were thoroughly mixed, incubated at 32 °C for 24 h, and, if needed, carefully resuspended before applying on the skin. The effects of the studied enhancers on the solubility of model drugs were assessed as described previously.
(§2) The permeation-enhancing potencies of the prepared compounds were evaluated on human skin in Franz diffusion cells. Human skin was slowly thawed, cut into 2 × 2 cm pieces, fixed in Teflon holders with 1-cm^2 circular permeation areas, and mounted into Franz cells epidermal side up. The acceptor compartment (15.9 ± 0.1 ml) was filled with phosphate-buffered saline at pH 7.4 with 0.005% gentamicin (PBS) and stirred at 32 °C throughout the experiment. The skin integrity was checked by electrical impedance (any skin sample with the impedance < 10 kΩ was excluded). Then, 100 µl of a donor sample (infinite dose) was applied to the skin and covered with a glass slide. Acceptor phase samples (300 µl) were collected at predetermined time intervals for 48 h, to reach steady-state and were replaced by the same volume of fresh PBS. […] The drug concentrations were measured by HPLC (see supplementary data).

Data set [2] has as its system rat skin. Particulars: […] DC in ethanol/glycerol/water 6:1:3 on rat skin; cited from earlier work.
The subject of data set [3] is human skin. Particulars: 5% DC in PBS/isopropyl alcohol 9:1 on human skin; cited from earlier work.
Data set [4] in a line: Diclofenac permeation through human skin in Franz diffusion cells with co-applied enhancer. It is filed as in vitro ADME. Particulars: pH 7.4; 3% DC in 60% PG, no enhancer; human skin in vitro; read-out: permeability coefficient of DC (converted). As to the method: as §1, §2
(§3) The flux of the model drug through the skin Jss (µg/cm^2/h) was calculated from the linear region of this plot. The enhancement ratio (ER) was calculated as the ratio of flux with and without an enhancer.
(§4) After the permeation experiment, the cells were dismounted, the skin was carefully washed with PBS, and the permeation area of the skin (1 cm^2) was punched off. After heating the skin fragments to 80 °C for 1 min, the epidermis (E) was peeled off the dermis (D), individually weighed and extracted by 1 and 2 ml, respectively, of an extraction solvent (identical to the mobile phase for the drug HPLC analysis, see supplementary data) for 24 h. The drug concentration was measured by HPLC (see supplementary data).

The test system of data set [5] is human skin. In words: Theophylline permeation through human skin in Franz diffusion cells with co-applied enhancer. It is filed as in vitro ADME. Particulars: 1% enhancer co-applied with 5% TH in 60% PG. As to the method:
The prepared enhancers were applied at 1% in 60% aqueous propylene glycol (PG) to human skin in vitro; 60% PG was used as a negative control. PG was selected for its synergy with amphiphilic enhancers. Each model drug was co-applied with the enhancer at infinite dose.
as §1, §2, §3, §4

Data set [6] relates to human skin. In words: Diclofenac permeation through human skin in Franz diffusion cells with co-applied enhancer. It is filed as in vitro ADME. The conditions noted are these: 1% enhancer co-applied with 3% DC in 60% PG. As to the method:
as §1, §2, §3, §4

The conditions of data set [7]: DC: free acid form; quoted without reference; cited from earlier work.
In a further data set the test system is HaCaT and 3T3 cells. Particulars: read-out: in vitro cellular toxicities on HaCaT and 3T3 cells; cited from earlier work.
In data set [8] the test system is rat skin. Particulars: rats; cited from earlier work.
Another data set concerns rats. Particulars: cited from earlier work.
[9] abbreviates: after 48 h permeation, mean ± SEM.

≈ marks a conversion by molar mass, not a printed value.

As a reminder, the solubility is how much of the substance goes into solution per volume. On to `O=C(O)Cc1ccccc1Nc1c(Cl)cccc1Cl` [DC, diclofenac], for which the solubility in [1] (phosphate-buffered saline) worked out at 9450 ± 150 µg/mL (≈ 31.9 mM). Also, the “permeability coefficient of DC” value was 11.0 × 10^–5 cm/h in the data set with rat skin [2] and 2.2 × 10^–5 cm/h with human skin [3]. Moreover, the Papp at 48 h, 3 % in data set [4] is 0.0144 ×10⁻⁶ cm/s.

As to `CCCCCCCCCCCCOC(=O)C1CCCN1C(=O)CCCCCCC` (stereo not shown) [Pro8], in the data set with human skin [5] (setting [9]), the “CDERMIS, theophylline concentration in dermis” value amounted to 0.19 ± 0.02 µg/mg and the “CEPIDERMIS, theophylline concentration in epidermis” value came to 0.89 ± 0.25 µg/mg. Further, in the data set with human skin [5] (human skin in vitro), the “ER, enhancement ratio of theophylline flux (fold increase in flux over control)” value was found to be 9. In the data set on human skin [6] (setting [9]), the “CDERMIS, diclofenac concentration in dermis” value is on record as 1.08 ± 0.28 µg/mg and the “CEPIDERMIS, diclofenac concentration in epidermis” value is given as 10.20 ± 0.96 µg/mg. Besides, the “ER, enhancement ratio of diclofenac flux” value with human skin [6] (human skin in vitro) is recorded as 3.

On to `Cn1c(=O)c2[nH]cnc2n(C)c1=O` [TH, theophylline], for which, in data set [1], the solubility at 24 h is about 25000 µg/mL (≈ 139 mM) and the solubility came to 7650 ± 20 µg/mL (≈ 42.5 mM). In [7], the logP is recorded as ~ 0.

With `CCCCCCCCCCCCOC(=O)CCCCCN.CCCCCCCCCCCCOC(=O)CCCCCNC(=O)O` [Transkarbam 12], the IC50 in the data set with HaCaT and 3T3 cells is 21 to 26 µM. Besides, in the data set on rat skin [8], the “in vivo dermal irritation and toxicity” value was “low in vivo dermal irritation and toxicity”. Also, the “acute oral toxicity in rats” value in the data set on rats is “no acute oral toxicity in rats”.

Source of the values: article PMC9663686, “Proline, hydroxyproline, and pyrrolidone carboxylic acid derivatives as highly efficient but reversible transdermal permeation enhancers” (Scientific Reports, 2022).
